Reference: patent US20240050597A1, “RADIOLABELLED ALPHA-V BETA-3 AND/OR ALPHA-V BETA-5 INTEGRINS ANTAGONIST FOR USE AS THERAGNOSTIC AGENT” (ADVANCED ACCELERATOR APPLICATIONS INTERNATIONAL SA, priority 2020, published 2024)

Legend:
αvβ3 = αvβ3 (Homo sapiens, UniProt P05106+P06756); assay: Affinity for αvβ3 (preclinical data, summary statement); assay type: binding
αvβ5 = αvβ5 (Homo sapiens, UniProt P06756+P18084); assay: Affinity for αvβ5 (preclinical data, summary statement); assay type: binding
Sequence of αvβ5 (P06756 31-889 limits assumed): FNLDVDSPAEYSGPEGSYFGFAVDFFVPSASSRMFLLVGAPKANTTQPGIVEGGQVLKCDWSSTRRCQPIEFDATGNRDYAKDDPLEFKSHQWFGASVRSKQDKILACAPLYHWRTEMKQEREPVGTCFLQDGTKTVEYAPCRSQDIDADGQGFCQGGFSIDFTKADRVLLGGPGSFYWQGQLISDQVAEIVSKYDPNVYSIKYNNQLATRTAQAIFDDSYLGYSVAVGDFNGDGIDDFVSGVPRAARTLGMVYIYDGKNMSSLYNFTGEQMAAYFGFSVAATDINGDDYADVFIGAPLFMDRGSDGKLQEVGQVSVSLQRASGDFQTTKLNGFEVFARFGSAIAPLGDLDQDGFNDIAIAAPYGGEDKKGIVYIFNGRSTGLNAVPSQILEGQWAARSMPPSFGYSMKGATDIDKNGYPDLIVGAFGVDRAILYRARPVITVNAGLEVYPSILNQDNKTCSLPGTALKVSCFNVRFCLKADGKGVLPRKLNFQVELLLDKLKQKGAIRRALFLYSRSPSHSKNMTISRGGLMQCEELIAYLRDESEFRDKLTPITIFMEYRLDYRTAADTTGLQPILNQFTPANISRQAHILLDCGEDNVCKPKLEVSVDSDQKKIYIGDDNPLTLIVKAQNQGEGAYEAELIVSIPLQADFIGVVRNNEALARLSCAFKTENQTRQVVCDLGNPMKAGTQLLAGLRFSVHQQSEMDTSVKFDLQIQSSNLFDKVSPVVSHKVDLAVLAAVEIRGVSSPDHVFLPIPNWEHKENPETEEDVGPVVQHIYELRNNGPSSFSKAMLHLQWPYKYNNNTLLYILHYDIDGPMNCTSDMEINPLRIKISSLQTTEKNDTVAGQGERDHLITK
Sequence of αvβ5 (P06756 891-1048 partner limits assumed): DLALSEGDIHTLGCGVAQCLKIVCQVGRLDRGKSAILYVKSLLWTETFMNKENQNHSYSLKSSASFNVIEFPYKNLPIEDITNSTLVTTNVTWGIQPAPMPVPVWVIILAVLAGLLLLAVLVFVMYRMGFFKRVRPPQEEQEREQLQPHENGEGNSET
Sequence of αvβ5 (P18084 24-799): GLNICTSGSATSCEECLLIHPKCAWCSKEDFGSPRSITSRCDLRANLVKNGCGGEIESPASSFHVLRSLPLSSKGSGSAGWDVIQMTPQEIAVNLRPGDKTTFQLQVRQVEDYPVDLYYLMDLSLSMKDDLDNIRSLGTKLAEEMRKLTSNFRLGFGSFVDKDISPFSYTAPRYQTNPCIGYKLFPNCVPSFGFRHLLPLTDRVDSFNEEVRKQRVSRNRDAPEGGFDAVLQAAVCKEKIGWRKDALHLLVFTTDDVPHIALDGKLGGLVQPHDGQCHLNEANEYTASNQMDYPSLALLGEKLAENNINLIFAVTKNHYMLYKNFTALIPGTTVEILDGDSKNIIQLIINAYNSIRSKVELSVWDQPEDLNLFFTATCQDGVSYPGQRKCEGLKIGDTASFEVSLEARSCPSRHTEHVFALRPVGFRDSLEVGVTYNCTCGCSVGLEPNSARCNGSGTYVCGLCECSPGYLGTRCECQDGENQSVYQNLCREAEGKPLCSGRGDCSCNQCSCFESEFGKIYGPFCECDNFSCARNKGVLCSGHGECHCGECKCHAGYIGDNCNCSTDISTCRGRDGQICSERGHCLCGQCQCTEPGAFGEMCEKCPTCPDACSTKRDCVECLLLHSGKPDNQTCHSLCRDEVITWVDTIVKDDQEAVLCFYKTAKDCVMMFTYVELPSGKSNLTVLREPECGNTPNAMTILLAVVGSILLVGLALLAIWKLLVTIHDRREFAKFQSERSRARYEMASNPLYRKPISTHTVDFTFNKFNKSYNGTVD

other receptors = assay: Affinity for other receptors (preclinical data, summary statement); assay type: binding
WM266 melanoma tumor = system: WM266 melanoma tumor; set-up: species or system mice; conditions: mouse, in vivo
Description: Nude, male and female athymic mice bearing the WM266 melanoma tumor were intravenously injected with ^68Ga-Compound (˜100-150/uCi 320-480 pmol for males, ˜100-150 uCi/127-191 pmol for females, corresponding to 3.7-5.55 MBq). Animals were sacrificed in groups of four at 30 min, 1 h, 2 h and 4 h post injection. Tumor and organs of interest were collected, weighed and measured for radioactivity with a gamma-counter. The intestines and stomach were not emptied of their contents. Data were calculated as a percentage of the injected dose per gram of tissue (% ID/g).

[1] = Preliminary tests of FF58 resistance to radiation stress; assay type: physicochemical
Description: Additional tests were performed in order to evaluate the radiolysis also in more stressful conditions such as 40° C. storage temperature and rolling, decreasing antioxidant agent (sodium ascorbate and gentisic acid) amounts. The radiochemical purity (RCP) was monitored at release time and at expiration time by Radio-RP-HPLC.

Sequence of αvβ3 (P06756 31-889 limits assumed): as the sequence (P06756 31-889 limits assumed) above
Sequence of αvβ3 (P06756 891-1048 partner limits assumed): as the sequence (P06756 891-1048 partner limits assumed) above
Sequence of αvβ3 (P05106 27-788): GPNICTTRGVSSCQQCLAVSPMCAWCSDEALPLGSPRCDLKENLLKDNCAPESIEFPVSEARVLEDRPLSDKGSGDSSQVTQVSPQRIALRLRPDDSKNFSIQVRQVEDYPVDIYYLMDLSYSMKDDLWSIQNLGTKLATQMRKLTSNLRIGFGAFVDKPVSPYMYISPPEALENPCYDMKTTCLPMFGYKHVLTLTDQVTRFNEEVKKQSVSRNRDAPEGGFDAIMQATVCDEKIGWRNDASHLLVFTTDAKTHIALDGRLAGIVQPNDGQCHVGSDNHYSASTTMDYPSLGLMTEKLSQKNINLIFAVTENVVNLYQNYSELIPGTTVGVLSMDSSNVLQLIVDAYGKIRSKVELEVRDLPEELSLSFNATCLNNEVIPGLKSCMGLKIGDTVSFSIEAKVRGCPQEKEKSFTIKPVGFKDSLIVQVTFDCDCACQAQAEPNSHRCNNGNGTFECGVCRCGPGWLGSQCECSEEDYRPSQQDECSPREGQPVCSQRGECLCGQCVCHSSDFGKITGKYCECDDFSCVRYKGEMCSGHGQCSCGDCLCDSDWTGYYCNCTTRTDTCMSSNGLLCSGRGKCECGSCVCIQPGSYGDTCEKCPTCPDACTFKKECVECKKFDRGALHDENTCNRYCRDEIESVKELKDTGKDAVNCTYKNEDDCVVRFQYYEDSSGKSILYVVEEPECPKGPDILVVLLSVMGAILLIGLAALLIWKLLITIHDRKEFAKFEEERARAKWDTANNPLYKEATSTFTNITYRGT

SMILES: Cc1cc(OCCCC(=O)NCCNC(=O)[C@H](CS(=O)(=O)O)NC(=O)CN2CCN(CC(=O)O)CCN(CC(=O)O)CCN(CC(=O)O)CC2)cc(C)c1S(=O)(=O)NC(CNC(=O)CCCCc1ccc2c(n1)NCCC2)C(=O)O (single isomer, unassigned) [^68Ga-Compound, metal not drawn]
- affinity for αvβ3 (αvβ3): high affinity
- affinity for αvβ5 (αvβ5): high affinity
- affinity for other receptors (other receptors): absence of affinity
- background uptake in normal organs (WM266 melanoma tumor): cleared moderately by 4 h
- excretion (uptake in the kidneys and intestine) (WM266 melanoma tumor): renal and partial hepatic excretion

SMILES: Cc1cc(OCCCC(=O)NCCNC(=O)[C@H](CS(=O)(=O)O)NC(=O)CN2CCN(CC(=O)O)CCN(CC(=O)O)CCN(CC(=O)O)CC2)cc(C)c1S(=O)(=O)NC(CNC(=O)CCCCc1ccc2c(n1)NCCC2)C(=O)O (stereo partly drawn) [FF58]
- resistance to the radiation stress [1]: good resistance to the radiation stress
